Values of other authors as cited in patent publication US20070027073A1, “Long-acting derivatives of pyy agonists” (priority 2003, published 2007).

Settings: in vivo

CCCCCCCCCCC[C@@H](C[C@@H]1OC(=O)[C@H]1CCCCCC)OC(=O)[C@H](CC(C)C)NC=O [Orlistat]
reduction of fat adsorption through the gut: about one third
